In PMC9234961 (Journal of Medicinal Chemistry, 2022):
Like-named read-outs stand apart in the source and are kept apart here.

Experiments:
kinases (468) [1] = target: kinases (468) (Homo sapiens, UniProt O60285); conditions: ARK5 (NUAK1); 1000 nM
kinases (468) [2] = target: kinases (468) (Homo sapiens, UniProt O75460); conditions: ERN1; 1000 nM
kinases (468) [3] = target: kinases (468) (Homo sapiens, UniProt P00533, T790M); conditions: EGFR(T790M); 1000 nM
kinases (468) [4] = target: kinases (468) (Homo sapiens, UniProt P07949); conditions: RET; 1000 nM
kinases (468) [5] = target: kinases (468) (Homo sapiens, UniProt P07949, V804L); conditions: kinase RET(V804L) (Entrez RET); compound concentration 1000 nM
kinases (468) [6] = target: kinases (468) (Homo sapiens, UniProt P10721); conditions: 1000 nM
kinases (468) [7] = target: kinases (468) (Homo sapiens, UniProt P17612); conditions: PKAC-alpha (PRKACA); 1000 nM
kinases (468) [8] = target: kinases (468) (Homo sapiens, UniProt P29322); conditions: EPHA8; 1000 nM
kinases (468) [9] = target: kinases (468) (Homo sapiens, UniProt P36888, R834Q); conditions: FLT3(R834Q); 1000 nM
kinases (468) [10] = target: kinases (468) (Homo sapiens, UniProt P42336, E542K); conditions: PIK3CA(E542K); 1000 nM
kinases (468) [11] = target: kinases (468) (Homo sapiens, UniProt P46734); conditions: MEK3 (MAP2K3); 1000 nM
kinases (468) [12] = target: kinases (468) (Homo sapiens, UniProt P49336); conditions: CDK8; 1000 nM
kinases (468) [13] = target: kinases (468) (Homo sapiens, UniProt P52333); conditions: JAK3(JH1domain-catalytic); 1000 nM
kinases (468) [14] = target: kinases (468) (Homo sapiens, UniProt P54762); conditions: EPHB1; 1000 nM
kinases (468) [15] = target: kinases (468) (Homo sapiens, UniProt P68400); conditions: CSNK2A1; 1000 nM
kinases (468) [16] = target: kinases (468) (Homo sapiens, UniProt P78356); conditions: PIP5K2B (PIP4K2B); 1000 nM
kinases (468) [17] = target: kinases (468) (Homo sapiens, UniProt Q13188); conditions: MST2 (STK3); 1000 nM
kinases (468) [18] = target: kinases (468) (Homo sapiens, UniProt Q13233); conditions: MAP3K1; 1000 nM
kinases (468) [19] = target: kinases (468) (Homo sapiens, UniProt Q14012); conditions: CAMK1; 1000 nM
kinases (468) [20] = target: kinases (468) (Homo sapiens, UniProt Q52WX2); conditions: kinase SBK1 (Entrez SBK1); compound concentration 1000 nM
kinases (468) [21] = target: kinases (468) (Homo sapiens, UniProt Q6DT37); conditions: DMPK2 (CDC42BPG); 1000 nM
kinases (468) [22] = target: kinases (468) (Homo sapiens, UniProt Q6P3R8); conditions: NEK5; 1000 nM
kinases (468) [23] = target: kinases (468) (Homo sapiens, UniProt Q6ZN16); conditions: MAP3K15; 1000 nM
kinases (468) [24] = target: kinases (468) (Homo sapiens, UniProt Q8NFD2); conditions: ANKK1; 1000 nM
kinases (468) [25] = target: kinases (468) (Homo sapiens, UniProt Q92630); conditions: DYRK2; 1000 nM
kinases (468) [26] = target: kinases (468) (Homo sapiens, UniProt Q92772); conditions: CDKL2; 1000 nM
kinases (468) [27] = target: kinases (468) (Homo sapiens, UniProt Q92918); conditions: HPK1 (MAP4K1); 1000 nM
kinases (468) [28] = target: kinases (468) (Homo sapiens, UniProt Q96SB4); conditions: kinase SRPK1 (Entrez SRPK1); compound concentration 1000 nM
kinases (468) [29] = target: kinases (468) (Homo sapiens, UniProt Q99558); conditions: NIK (MAP3K14); 1000 nM
kinases (468) [30] = target: kinases (468) (Homo sapiens, UniProt Q9BVS4); conditions: kinase RIOK2 (Entrez RIOK2); compound concentration 1000 nM
kinases (468) [31] = target: kinases (468) (Homo sapiens, UniProt Q9H3Y6); conditions: kinase SRMS (Entrez SRMS); compound concentration 1000 nM
kinases (468) [32] = target: kinases (468) (Homo sapiens, UniProt Q9HC98); conditions: NEK6; 1000 nM
kinases (468) [33] = target: kinases (468) (Homo sapiens, UniProt Q9NSY1); conditions: BIKE (BMP2K); 1000 nM
kinases (468) [34] = target: kinases (468) (Homo sapiens, UniProt Q9NWZ3); conditions: IRAK4; 1000 nM

kinases (468) (Homo sapiens, UniProt P10721), sequence (P10721 26-976): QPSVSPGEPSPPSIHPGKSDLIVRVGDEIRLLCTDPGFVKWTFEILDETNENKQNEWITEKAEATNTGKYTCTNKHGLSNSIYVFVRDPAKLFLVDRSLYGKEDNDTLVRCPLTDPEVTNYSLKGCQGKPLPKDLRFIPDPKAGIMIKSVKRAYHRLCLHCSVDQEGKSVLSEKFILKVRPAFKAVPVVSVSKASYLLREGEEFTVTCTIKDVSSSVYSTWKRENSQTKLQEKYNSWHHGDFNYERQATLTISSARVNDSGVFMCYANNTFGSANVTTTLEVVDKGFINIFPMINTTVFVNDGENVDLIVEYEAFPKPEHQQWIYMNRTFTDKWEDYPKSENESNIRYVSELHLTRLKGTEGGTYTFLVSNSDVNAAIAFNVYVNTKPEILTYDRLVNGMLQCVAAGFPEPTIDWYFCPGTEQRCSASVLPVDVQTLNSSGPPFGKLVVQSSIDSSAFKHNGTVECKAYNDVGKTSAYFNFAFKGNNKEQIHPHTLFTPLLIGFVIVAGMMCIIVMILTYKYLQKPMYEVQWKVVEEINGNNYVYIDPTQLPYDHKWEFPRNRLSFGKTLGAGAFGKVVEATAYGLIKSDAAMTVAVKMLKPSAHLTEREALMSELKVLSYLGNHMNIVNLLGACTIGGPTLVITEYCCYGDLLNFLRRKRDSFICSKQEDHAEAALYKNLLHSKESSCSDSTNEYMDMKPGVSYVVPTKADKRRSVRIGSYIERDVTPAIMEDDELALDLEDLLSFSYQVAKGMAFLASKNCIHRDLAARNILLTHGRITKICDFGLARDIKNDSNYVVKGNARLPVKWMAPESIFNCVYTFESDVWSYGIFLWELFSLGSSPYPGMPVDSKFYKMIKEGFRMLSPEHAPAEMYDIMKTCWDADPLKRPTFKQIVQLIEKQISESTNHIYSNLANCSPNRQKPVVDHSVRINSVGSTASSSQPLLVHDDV
kinases (468) (Homo sapiens, UniProt P29322), sequence (P29322 28-1005): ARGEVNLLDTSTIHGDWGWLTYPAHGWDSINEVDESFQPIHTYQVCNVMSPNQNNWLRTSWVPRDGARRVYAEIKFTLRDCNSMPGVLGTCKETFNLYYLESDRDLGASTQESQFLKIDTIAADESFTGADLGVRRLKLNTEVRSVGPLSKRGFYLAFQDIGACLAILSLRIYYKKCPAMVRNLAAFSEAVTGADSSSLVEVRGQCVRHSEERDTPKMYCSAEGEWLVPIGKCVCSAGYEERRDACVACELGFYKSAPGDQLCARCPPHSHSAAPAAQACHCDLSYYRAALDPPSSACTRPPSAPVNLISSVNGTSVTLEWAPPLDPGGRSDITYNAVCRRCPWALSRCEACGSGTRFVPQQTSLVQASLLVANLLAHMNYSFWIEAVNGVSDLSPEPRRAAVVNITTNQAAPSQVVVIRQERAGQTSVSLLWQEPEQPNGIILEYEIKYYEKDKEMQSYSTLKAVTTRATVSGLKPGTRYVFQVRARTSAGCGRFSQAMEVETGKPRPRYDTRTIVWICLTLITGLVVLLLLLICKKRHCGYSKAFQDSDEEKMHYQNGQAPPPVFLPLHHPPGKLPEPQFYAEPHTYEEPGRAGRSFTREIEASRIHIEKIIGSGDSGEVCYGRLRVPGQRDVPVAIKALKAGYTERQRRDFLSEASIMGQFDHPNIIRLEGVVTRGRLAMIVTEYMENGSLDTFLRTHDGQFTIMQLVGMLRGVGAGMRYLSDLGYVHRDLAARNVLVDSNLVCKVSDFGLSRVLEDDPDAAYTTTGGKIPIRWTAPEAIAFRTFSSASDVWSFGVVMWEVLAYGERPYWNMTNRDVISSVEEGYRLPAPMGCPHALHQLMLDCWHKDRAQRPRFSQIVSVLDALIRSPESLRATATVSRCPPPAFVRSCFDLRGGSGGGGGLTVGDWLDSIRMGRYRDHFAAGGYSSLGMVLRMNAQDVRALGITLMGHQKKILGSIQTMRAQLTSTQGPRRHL
kinases (468) (Homo sapiens, UniProt P07949), sequence (P07949 29-1114): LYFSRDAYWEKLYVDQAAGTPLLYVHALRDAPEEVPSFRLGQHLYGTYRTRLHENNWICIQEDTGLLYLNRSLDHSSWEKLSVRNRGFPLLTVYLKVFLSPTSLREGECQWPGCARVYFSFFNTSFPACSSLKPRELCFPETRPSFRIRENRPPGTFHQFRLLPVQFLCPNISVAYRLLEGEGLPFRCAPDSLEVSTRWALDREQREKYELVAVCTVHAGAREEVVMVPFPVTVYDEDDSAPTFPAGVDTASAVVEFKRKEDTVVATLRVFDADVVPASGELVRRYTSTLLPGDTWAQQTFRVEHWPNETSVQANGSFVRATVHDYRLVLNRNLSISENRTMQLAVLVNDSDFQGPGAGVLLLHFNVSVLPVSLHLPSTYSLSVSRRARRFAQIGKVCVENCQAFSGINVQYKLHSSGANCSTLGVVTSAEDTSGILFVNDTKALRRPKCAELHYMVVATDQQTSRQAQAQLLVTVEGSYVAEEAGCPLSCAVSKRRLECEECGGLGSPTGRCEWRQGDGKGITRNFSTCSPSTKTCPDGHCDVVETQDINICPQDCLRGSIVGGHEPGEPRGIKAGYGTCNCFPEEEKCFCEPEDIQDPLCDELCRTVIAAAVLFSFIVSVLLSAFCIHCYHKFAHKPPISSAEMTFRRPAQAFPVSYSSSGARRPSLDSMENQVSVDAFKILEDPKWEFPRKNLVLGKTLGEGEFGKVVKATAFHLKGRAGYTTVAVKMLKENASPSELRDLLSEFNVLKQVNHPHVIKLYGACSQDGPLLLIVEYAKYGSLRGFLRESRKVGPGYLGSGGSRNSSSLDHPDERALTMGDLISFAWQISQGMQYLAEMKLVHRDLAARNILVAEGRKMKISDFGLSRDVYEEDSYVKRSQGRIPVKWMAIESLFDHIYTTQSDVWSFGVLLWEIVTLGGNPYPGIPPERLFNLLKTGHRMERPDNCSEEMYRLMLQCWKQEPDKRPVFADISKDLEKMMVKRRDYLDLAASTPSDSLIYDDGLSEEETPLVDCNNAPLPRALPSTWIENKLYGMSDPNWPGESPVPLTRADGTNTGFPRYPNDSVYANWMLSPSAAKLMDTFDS
kinases (468) (Homo sapiens, UniProt Q96SB4), sequence (Q96SB4 whole entry): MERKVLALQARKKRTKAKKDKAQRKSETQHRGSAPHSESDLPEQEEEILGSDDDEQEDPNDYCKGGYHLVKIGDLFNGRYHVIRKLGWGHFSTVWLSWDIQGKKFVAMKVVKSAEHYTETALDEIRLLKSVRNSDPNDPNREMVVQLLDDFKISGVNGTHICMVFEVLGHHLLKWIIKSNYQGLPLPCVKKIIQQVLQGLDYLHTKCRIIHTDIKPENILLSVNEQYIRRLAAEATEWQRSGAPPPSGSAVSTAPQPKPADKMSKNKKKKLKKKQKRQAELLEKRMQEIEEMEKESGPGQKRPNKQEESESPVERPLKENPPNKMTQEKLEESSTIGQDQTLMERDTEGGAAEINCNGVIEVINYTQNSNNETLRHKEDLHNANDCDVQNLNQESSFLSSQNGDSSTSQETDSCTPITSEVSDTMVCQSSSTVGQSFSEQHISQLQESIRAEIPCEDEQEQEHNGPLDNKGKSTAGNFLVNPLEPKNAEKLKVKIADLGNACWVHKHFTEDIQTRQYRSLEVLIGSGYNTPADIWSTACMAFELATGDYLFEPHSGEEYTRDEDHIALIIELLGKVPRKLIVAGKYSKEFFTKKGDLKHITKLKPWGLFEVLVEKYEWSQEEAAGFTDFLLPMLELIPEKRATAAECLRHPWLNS
kinases (468) (Homo sapiens, UniProt P68400), sequence (P68400 whole entry): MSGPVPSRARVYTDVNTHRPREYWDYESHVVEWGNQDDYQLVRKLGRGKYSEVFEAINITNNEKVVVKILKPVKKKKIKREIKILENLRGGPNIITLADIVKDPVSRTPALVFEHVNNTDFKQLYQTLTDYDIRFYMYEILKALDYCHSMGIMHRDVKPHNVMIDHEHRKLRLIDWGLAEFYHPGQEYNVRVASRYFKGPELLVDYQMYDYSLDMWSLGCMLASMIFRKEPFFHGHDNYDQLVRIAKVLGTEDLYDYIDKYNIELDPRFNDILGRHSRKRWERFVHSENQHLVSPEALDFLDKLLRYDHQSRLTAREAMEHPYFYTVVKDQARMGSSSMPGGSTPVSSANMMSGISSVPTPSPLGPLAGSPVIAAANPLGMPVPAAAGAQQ
kinases (468) (Homo sapiens, UniProt Q9HC98), sequence (Q9HC98 whole entry): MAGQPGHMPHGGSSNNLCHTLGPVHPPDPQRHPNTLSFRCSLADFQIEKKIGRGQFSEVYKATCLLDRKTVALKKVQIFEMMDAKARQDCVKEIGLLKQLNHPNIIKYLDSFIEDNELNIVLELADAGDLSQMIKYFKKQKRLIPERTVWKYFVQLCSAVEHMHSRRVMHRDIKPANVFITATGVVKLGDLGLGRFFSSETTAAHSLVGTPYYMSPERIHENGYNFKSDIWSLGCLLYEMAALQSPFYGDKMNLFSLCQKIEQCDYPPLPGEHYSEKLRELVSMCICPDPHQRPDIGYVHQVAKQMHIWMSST
kinases (468) (Homo sapiens, UniProt P07949, V804L), sequence (P07949 29-1114 V804L): as the sequence (P07949 29-1114) above, with V776L counted along it
kinases (468) (Homo sapiens, UniProt Q92630), sequence (Q92630 whole entry): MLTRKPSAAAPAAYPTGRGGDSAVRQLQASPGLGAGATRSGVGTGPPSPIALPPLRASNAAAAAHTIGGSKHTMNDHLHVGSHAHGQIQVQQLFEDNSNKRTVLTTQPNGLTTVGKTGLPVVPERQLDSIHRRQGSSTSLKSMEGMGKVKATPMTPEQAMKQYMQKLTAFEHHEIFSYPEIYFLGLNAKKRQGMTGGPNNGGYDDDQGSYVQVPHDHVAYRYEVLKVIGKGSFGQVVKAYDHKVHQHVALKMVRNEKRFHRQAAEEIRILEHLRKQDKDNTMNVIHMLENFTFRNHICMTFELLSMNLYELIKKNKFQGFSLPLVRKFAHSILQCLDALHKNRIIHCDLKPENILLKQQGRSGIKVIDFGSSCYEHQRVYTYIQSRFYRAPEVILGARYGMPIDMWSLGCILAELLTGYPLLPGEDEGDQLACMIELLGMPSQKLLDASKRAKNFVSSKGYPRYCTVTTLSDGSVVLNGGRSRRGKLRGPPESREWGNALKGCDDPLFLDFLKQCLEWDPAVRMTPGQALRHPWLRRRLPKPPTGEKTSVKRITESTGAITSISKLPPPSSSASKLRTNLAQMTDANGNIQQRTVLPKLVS

## C[C@H]1C[C@@H](O)CN(c2ncc(Cl)c(Nc3ccc4c(c3)c3c(c(=O)n4C)OCC(F)(F)[C@H](C4CC4)N3)n2)C1 [CCT373566_9A]
Kinases (468) [1]
  Percent Control: 98%
Kinases (468) [2]
  Percent Control: 92%
Kinases (468) [3]
  Percent Control: 100%
Kinases (468) [4]
  Percent Control: 99%
Kinases (468) [5]
  Percent Control: 100%
Kinases (468) [6]; KIT-autoinhibited
  Percent Control: 90%
Kinases (468) [6]; KIT
  Percent Control: 100%
Kinases (468) [7]
  Percent Control: 100%
Kinases (468) [8]
  Percent Control: 100%
Kinases (468) [9]
  Percent Control: 100%
Kinases (468) [10]
  Percent Control: 83%
Kinases (468) [11]
  Percent Control: 100%
Kinases (468) [12]
  Percent Control: 100%
Kinases (468) [13]
  Percent Control: 78%
Kinases (468) [14]
  Percent Control: 99%
Kinases (468) [15]
  Percent Control: 91%
Kinases (468) [16]
  Percent Control: 100%
Kinases (468) [17]
  Percent Control: 100%
Kinases (468) [18]
  Percent Control: 93%
Kinases (468) [19]
  Percent Control: 89%
Kinases (468) [20]
  Percent Control: 99%
Kinases (468) [21]
  Percent Control: 100%
Kinases (468) [22]
  Percent Control: 100%
Kinases (468) [23]
  Percent Control: 99%
Kinases (468) [24]
  Percent Control: 95%
Kinases (468) [25]
  Percent Control: 91%
Kinases (468) [26]
  Percent Control: 100%
Kinases (468) [27]
  Percent Control: 82%
Kinases (468) [28]
  Percent Control: 83%
Kinases (468) [29]
  Percent Control: 83%
Kinases (468) [30]
  Percent Control: 100%
Kinases (468) [31]
  Percent Control: 90%
Kinases (468) [32]
  Percent Control: 100%
Kinases (468) [33]
  Percent Control: 100%
Kinases (468) [34]
  Percent Control: 80%
